Structures can show the parent of a compound that is named as a salt.
Legend:
Assay type in all cases: cell-based, human
[1] = tested on: induced pluripotent stem cells (iPS cells, 201B7 strain); test: Proliferation promoting effect of ethanolamine, culture using matrigel; settings: 6, 30, 150, 750 or 3,750 μM, 8 days, single cell-seeding
Experimental: (§1) In the following Examples, proliferation effects of various test compounds on human pluripotent stem cells were evaluated. As human pluripotent stem cells, induced pluripotent stem cells (iPS cells, 201B7 strain) purchased from iPS Academia Japan, Inc. were used, unless particularly specified. Cell culture was performed using a culture vessel (Becton, Dickinson and Company, Falcon culture petri dish or Falcon culture plate) coated with a basal lamina matrix under the conditions of 5% CO2/37° C.
(§2) Various test compounds were added to a medium having the “E8” composition (disclosed in Nature Methods, 2011, 8, 424-429, which is incorporated herein by reference in its entirety) considered at present to be the minimum composition for cultivating human pluripotent stem cells at given concentrations and used for culture, and the effects thereof were studied. The medium was prepared by using Essential 8 (Life Technologies: A14666SA) considered to have the “E8” composition or a medium formulated to have an equivalent composition.
Ethanolamine (Sigma-Aldrich Co. LLC: E0135) was added at a final concentration of 6, 30, 150, 750 or 3,750 μM, and the medium was used for culture immediately after preparation, and the effect of ethanolamine was examined by studying the cell numbers after culture. The culture period was 8 days. 100,000 cells per 1 well were used for single cell-seeding. […]

[2] = tested on: induced pluripotent stem cells (iPS cells, 201B7 strain); test: Proliferation promoting effect of ethanolamine and combination with albumin, laminin 511 fragment, single cell-seeding; settings: 1 week
Experimental: as §1, §2
Ethanolamine (Sigma-Aldrich Co. LLC: E0135) was added at a final concentration of 6, 30, 150, 750 or 3,750 μM, and the medium was used for culture immediately after preparation, and the effect of ethanolamine was examined by studying the cell numbers after culture. The culture period was 1 week. […] 13,000 viable cells per 1 well were used for single cell-seeding. As a basal lamina matrix, a fragment containing the active domain of laminin 511, which was purchased from Osaka University, was applied at 5 μg/well. Y-27632 was added (final concentration 10 μM, Nacalai Tesque: 08945-84) to the medium used for seeding. The cells were cultured in a medium free of Y-27632 from the following day. The number of viable cells was measured by Trypan Blue (Life Technologies: 15250-061) staining using a hemocytometer.

[3] = tested on: induced pluripotent stem cells (iPS cells, 201B7 strain); test: Influence of oleic acid carried by albumin on cell proliferation; settings: oleic acid carried by albumin 2.2, 6.5, 21.7 mg/g (20, 60, 200 μM in medium); albumin 2.6 g/l, ethanolamine 30 μM; one week
Experimental: as §1
Furthermore, a suspension of activated carbon (5 g, manufactured by Wako Pure Chemical Industries, Ltd.) heated at 200° C. for 30 min in advance in phosphate buffer (20 ml) was added to 100 ml. After stirring at 4° C. for 3 hr, the mixture was centrifuged at 4° C., 11,900 rpm for 20 min. […] Ethanolamine (final concentration 30 μM) was added to each medium. Using each medium, the cells were cultured for one week, and the cell number after culture was confirmed to study the influence of oleic acid. 13,000 viable cells per well were used for single cell-seeding. As a basal lamina matrix, a fragment containing the active domain of laminin 511, which was purchased from Osaka University, was applied at 4.8 μg/well. […] The number of viable cells was measured by Cell Viability autoanalyzer ViCELL™ XR (BECKMAN COULTER).

[4] = tested on: induced pluripotent stem cells (iPS cells, 201B7 strain); test: Proliferation promoting effect of ethanolamine analogs, laminin 511 fragment, single cell-seeding; settings: 1 week
Experimental: as §1, §2
(§3) After the culture, the cell number was counted to examine the effect of O-phosphoryl ethanolamine. The culture period was set to 1 week. 13,000 viable cells per well were used for single cell-seeding. As a basal lamina matrix, a fragment containing the active domain of laminin 511, which was purchased from Osaka University, was applied at 4.8 μg/well. Y-27632 was added (final concentration 10 μM, Nacalai Tesque: 08945-84) to the medium used for seeding. The cells were cultured in a medium free of Y-27632 from the following day. The number of viable cells was measured by Cell Viability autoanalyzer ViCELL™ XR (BECKMAN COULTER).
as §3, with “2-(methylamino)ethanol.” for “O-phosphoryl ethanolamine.”
as §3, with “2-dimethylaminoethanol.” for “O-phosphoryl ethanolamine.”
as §3, with “ethanolamine hydrochloride.” for “O-phosphoryl ethanolamine.”, “The cells were cultured in a medium free of Y-27632 from the following day.” left out

[5] = 6, 30, 150 or 750 μM in medium with albumin 2.6 g/l

NCCO [ethanolamine]
cell number after culture [1]: proliferation promoting effect in a wide concentration range | cell number relative to non-addition group (0 μM) ([2]; 6, 30, 150, 750 or 3,750 μM, without albumin): proliferation-promoting effect in a relatively wide concentration range | cell number relative to non-addition group (0 μM) ([2]; 6-3,750 μM combined with albumin 2.6 g/l): combination with albumin further enhances the proliferation promoting effect | cell number relative to non-addition group (0 μM) ([2]; high concentration range combined with albumin 2.6 g/l): resists a proliferation suppressive effect in a high concentration range, and shows a proliferation promoting effect | cell number relative to non-addition group (0 μM) ([2]; high concentration range, without albumin): proliferation suppressive effect conversely appears in a high concentration range

CCCCCCCC/C=C\CCCCCCCC(=O)O [oleic acid]
cell number after culture [3]: cell proliferation was suppressed along with an increasing amount of oleic acid carried by albumin

CNCCO [2-(methylamino)ethanol]
cell number relative to non-addition group (0 μM) [4, 5]: proliferation-promoting effect in a relatively wide concentration range

NCCO [ethanolamine hydrochloride]
cell number relative to non-addition group (0 μM) [4, 5]: proliferation-promoting effect in a relatively wide concentration range

NCCOP(=O)(O)O [O-phosphoryl ethanolamine]
cell number relative to non-addition group (0 μM) [4, 5]: proliferation-promoting effect in a relatively wide concentration range

CN(C)CCO [2-dimethylaminoethanol]
cell number relative to non-addition group (0 μM) [4, 5]: proliferation promoting effect in a relatively wide concentration range | cell number relative to non-addition group (0 μM) ([4]; high concentration range, medium with albumin 2.6 g/l): proliferation suppressive effect appears in a high concentration range

Reference: patent US10662411B2, “Culture method for stable proliferation of pluripotent stem cell while maintaining undifferentiated state” (AJINOMOTO CO., INC., priority 2013, dated 2020)
